These results are taken from patent US20250059174A1, “Pharmaceutical Compounds and Compositions as C-Kit Kinase Inhibitors” (Enanta Pharmaceuticals, Inc., priority 2023, published 2025).

Test [1] deals with Recombinant human c-KIT kinase (Homo sapiens (Human), UniProt P10721). Nature of the test: c-KIT kinase chemiluminescence assay (ADP-Glo). The class given is biochemical. The note with it: ATP 50 μM. In a few lines: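 Recombinant human c-KIT preincubated 30 min at RT in 40 mM Tris pH 7.5, 20 mM MgCl2, 0.1 mg/mL BSA, 50 μM DTT, then reacted 2 h at RT with ATP and polyEY substrate. ADP-Glo luminescence readout; activity normalized to high/low controls, IC50 and Hill coefficient from inhibitor-versus-normalized-response fit.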

For test [2], the system named is M-07e cells. Nature of the test: M-07e cellular assay (SCF-mediated cell proliferation). In kind it is cell-based. The note with it: Homo sapiens, 72 hours, CellTiter Glo. The method in brief:
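Readout came from CellTiter Glo after 72 h of compound treatment in SCF (EC90)-stimulated, pre-starved M-07e cells at 37 °C.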

Chain of Recombinant human c-KIT kinase (P10721 26-976): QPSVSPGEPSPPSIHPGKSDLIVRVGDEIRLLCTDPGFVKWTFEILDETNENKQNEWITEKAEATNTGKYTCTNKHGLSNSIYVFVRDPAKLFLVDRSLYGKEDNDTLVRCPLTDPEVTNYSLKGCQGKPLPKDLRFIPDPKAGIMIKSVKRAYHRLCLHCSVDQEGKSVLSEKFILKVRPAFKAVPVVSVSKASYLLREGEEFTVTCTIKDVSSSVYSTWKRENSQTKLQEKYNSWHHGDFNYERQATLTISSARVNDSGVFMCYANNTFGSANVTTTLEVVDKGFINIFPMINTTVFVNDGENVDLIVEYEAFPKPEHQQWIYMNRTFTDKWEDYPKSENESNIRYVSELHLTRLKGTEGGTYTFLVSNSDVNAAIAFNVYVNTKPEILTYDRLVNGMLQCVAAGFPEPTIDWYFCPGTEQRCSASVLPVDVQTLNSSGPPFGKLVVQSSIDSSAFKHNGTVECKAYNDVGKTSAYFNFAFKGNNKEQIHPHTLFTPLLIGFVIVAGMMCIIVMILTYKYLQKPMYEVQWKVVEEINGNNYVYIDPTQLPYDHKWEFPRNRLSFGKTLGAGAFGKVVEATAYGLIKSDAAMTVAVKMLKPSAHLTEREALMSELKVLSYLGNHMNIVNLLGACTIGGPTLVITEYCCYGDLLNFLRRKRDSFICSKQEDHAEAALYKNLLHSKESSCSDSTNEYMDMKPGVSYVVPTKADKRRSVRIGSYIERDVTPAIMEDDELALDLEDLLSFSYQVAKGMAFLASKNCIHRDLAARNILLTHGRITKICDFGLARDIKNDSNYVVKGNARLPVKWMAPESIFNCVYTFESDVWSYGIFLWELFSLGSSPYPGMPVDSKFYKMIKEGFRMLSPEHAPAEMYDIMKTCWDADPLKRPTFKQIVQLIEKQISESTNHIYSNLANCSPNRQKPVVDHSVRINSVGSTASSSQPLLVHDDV

Consider `Cc1ccc(-c2noc([C@H]3C[C@@H]3F)n2)cc1NC(=O)c1cnc(-c2ccc3c(c2)O[C@@H](C)CN3)o1` [Example 308-53], for which the IC50 in test [1] was in the range of 0.1 to 1 µM. In addition, in test [2], the EC50 was in the range of 0.1 to 1 µM.
On to `Cc1ccc(-c2noc([C@H]3C[C@@H]3F)n2)cc1NC(=O)c1cnc(-c2ccc3c(c2)O[C@H](C)CN3)o1` [Example 308-54], for which the IC50 in test [1] lay in the range of 0.1 to 1 µM. In test [2], this molecule showed a concentration giving a half-maximal response (EC50) of 0.1 to 1 µM.
Take `Cc1ccc(-c2noc([C@H]3C[C@@H]3F)n2)cc1NC(=O)c1cnc(-c2ccc3c(c2)CC(=O)N3C)o1` [Example 308-55]: the IC50 in test [1] fell in the range of 0.1 to 1 µM. Moreover, the EC50 in test [2] was in the range of 0.1 to 1 µM.
Consider `Cc1ccc(-c2noc([C@H]3C[C@@H]3F)n2)cc1NC(=O)c1cnc(-c2ccc3[nH]c4c(c3c2)CCN(C(=O)OC(C)(C)C)C4)o1` [Example 308-56], for which the 50% inhibitory concentration (IC50) in test [1] fell in the range of 0.1 to 1 µM. The molecule further registered an EC50 in test [2] of 0.1 to 1 µM.
Turning to `Cc1ccc(-c2noc([C@H]3C[C@@H]3F)n2)cc1NC(=O)c1cnc(-c2ccc3[nH]c4c(c3c2)CCNC4)o1` [Example 308-57], the IC50 in test [1] was under 0.1 µM. The concentration for a half-maximal effect (EC50) in test [2] was in the range of 0.1 to 1 µM.
In the same order, the values of `COC(=O)N1CC(c2nc(-c3ccc(C)c(NC(=O)c4cnc(-c5ccc6c(c5)CC(=O)N6)o4)c3)no2)C1` [Example 308-58] are under 0.1 µM and 0.1 to 1 µM.
Turning to `COC(=O)N1CC(c2nc(-c3cc(NC(=O)c4cnc(-c5ccc6c(c5)CC(=O)N6)o4)c(C)cc3F)no2)C1` [Example 308-59], the IC50 in test [1] fell in the range of 0.1 to 1 µM. In test [2], this molecule displayed an EC50 of 0.1 to 1 µM.
In the case of `Cc1ccc(-c2noc(C3CN(C(=O)OCc4ccccc4)C3)n2)cc1NC(=O)c1cnc(-c2ccc3c(c2)CC(=O)N3)o1` [Example 308-60], the IC50 in test [1] is over 1 µM. Also, the EC50 in test [2] is over 1 µM.
Regarding `Cc1ccc(-c2noc([C@H]3C[C@@H]3F)n2)cc1NC(=O)c1cnc(-c2ccc3c(c2)C(C)C(=O)N3)o1` (stereo partly shown) [Example 308-61], the IC50 in test [1] lay in the range of 0.1 to 1 µM. This molecule yielded a concentration giving a half-maximal response (EC50) in test [2] of 0.1 to 1 µM.
Take `Cc1ccc(-c2noc(C3CN(C(=O)OC(C)C)C3)n2)cc1NC(=O)c1cnc(-c2ccc3c(c2)CC(=O)N3)o1` [Example 308-62]: the IC50 in test [1] was 0.1 to 1 µM. In test [2], this molecule came in with an EC50 of over 1 µM.
As to `Cc1ccc(-c2noc(C3CN(C(=O)OC4CC4)C3)n2)cc1NC(=O)c1cnc(-c2ccc3c(c2)CC(=O)N3)o1` [Example 308-63], the IC50 in test [1] fell in the range of 0.1 to 1 µM. In test [2], the EC50 lay within 0.1 to 1 µM.
In the case of `Cc1ccc(-c2noc([C@H]3C[C@@H]3F)n2)cc1NC(=O)c1cnc(-c2ccc(C(C)(C)O)s2)o1` [Example 308], in test [1], the IC50 is over 1 µM. Further, the EC50 in test [2] is over 1 µM.
In the case of `Cc1ncc(-c2nnnn2C)cc1NC(=O)c1cnn2ccc(N3CC4(C3)CC(O)(C(F)F)C4)cc12` [Example 312-1], in test [1], the IC50 is over 1 µM. In test [2], this molecule had an EC50 of over 1 µM.
On to `Cc1ncc(-c2nnn(C)n2)cc1NC(=O)c1cnn2ccc(N3CC4(C3)CC(O)(C(F)F)C4)cc12` [Example 312-2], for which, in test [1], the IC50 was in the range of 0.1 to 1 µM. The EC50 in test [2] is under 0.1 µM.
In the same order, the values of `[2H]C([2H])([2H])n1nnnc1-c1cnc(C)c(NC(=O)c2cnn3ccc(N4CC5(C4)CC(O)(C(F)F)C5)cc23)c1` [Example 312-3] are over 1 µM and over 1 µM.
On the same counts, the results for `[2H]C([2H])([2H])n1nnc(-c2cnc(C)c(NC(=O)c3cnn4ccc(N5CC6(C5)CC(O)(C(F)F)C6)cc34)c2)n1` [Example 312-4] are 0.1 to 1 µM and under 0.1 µM.
In the same order, the values of `Cc1ncc(-c2nnn(CC(F)(F)F)n2)cc1NC(=O)c1cnn2ccc(N3CC4(C3)CC(O)(C(F)F)C4)cc12` [Example 312-5] are over 1 µM and under 0.1 µM.
In the case of `Cc1ncc(-c2nnn(C(C)C)n2)cc1NC(=O)c1cnn2ccc(N3CC4(C3)CC(O)(C(F)F)C4)cc12` [Example 312-6], the IC50 in test [1] is over 1 µM. This molecule displayed an EC50 in test [2] of under 0.1 µM.
On the same counts, the results for `Cc1ncc(-c2nnn(CC3CC3)n2)cc1NC(=O)c1cnn2ccc(N3CC4(C3)CC(O)(C(F)F)C4)cc12` [Example 312-7] are 0.1 to 1 µM and under 0.1 µM.
As to `Cc1ncc(-c2nnn(C3CNC3)n2)cc1NC(=O)c1cnn2ccc(N3CC4(C3)CC(O)(C(F)F)C4)cc12` [Example 312-8], the IC50 in test [1] was over 1 µM. This molecule displayed an EC50 in test [2] of over 1 µM.
Turning to `Cc1ncc(-c2nnn(C3CN(C(=O)OC(C)(C)C)C3)n2)cc1NC(=O)c1cnn2ccc(N3CC4(C3)CC(O)(C(F)F)C4)cc12` [Example 312-9], the IC50 in test [1] is over 1 µM. Further, the EC50 in test [2] lay within 0.1 to 1 µM.
In the case of `Cc1ncc(-c2nnn(C3CC(F)(F)C3)n2)cc1NC(=O)c1cnn2ccc(N3CC4(C3)CC(O)(C(F)F)C4)cc12` [Example 312], in test [1], the IC50 fell in the range of 0.1 to 1 µM. This molecule registered an EC50 in test [2] of under 0.1 µM.
On the same counts, the results for `Cc1ccc(-c2ncc(OC(F)F)cn2)cc1NC(=O)c1cnn2ccc(N3CC4(C3)CC(O)(C(F)F)C4)cc12` [Example 314] are under 0.1 µM and under 0.1 µM.
As to `Cc1ccc(-c2ncc(OC(F)(F)F)cn2)cc1NC(=O)c1cnn2ccc(N3CC4(C3)CC(O)(C(F)F)C4)cc12` [Example 315], the IC50 in test [1] was under 0.1 µM. The same molecule returned a half-maximal effective concentration (EC50) in test [2] of under 0.1 µM.
`Cc1ncc(-c2ncc(OC(F)F)cn2)cc1NC(=O)c1cnn2ccc(N3CC4(C3)CC(O)(C(F)F)C4)cc12` [Example 316]: in test [1], the IC50 was 0.1 to 1 µM. This molecule also showed an EC50 in test [2] of 0.1 to 1 µM.
With `Cc1ncc(-c2ncc(C3CC3)cn2)cc1NC(=O)c1cnn2ccc(N3CC4(C3)CC(O)(C(F)F)C4)cc12` [Example 317], the half-inhibitory concentration (IC50) in test [1] fell in the range of 0.1 to 1 µM. The molecule further returned a 50% effective concentration (EC50) in test [2] of under 0.1 µM.
On the same counts, the results for `Cc1ccc(-c2nc3cc(F)ccn3n2)cc1NC(=O)c1cnn2ccc(N3CC4(C3)CC(O)(C(F)F)C4)cc12` [Example 318] are under 0.1 µM and under 0.1 µM.
On the same counts, the results for `Cc1ccc(-c2ncc3c(ccn3C(F)F)n2)cc1NC(=O)c1cnn2ccc(N3CC4(C3)CC(O)(C(F)F)C4)cc12` [Example 319] are under 0.1 µM and under 0.1 µM.
On the same counts, the results for `Cc1ccc(-c2ncc3cccn3n2)cc1NC(=O)c1cnn2ccc(N3CC4(C3)CC(O)(C(F)F)C4)cc12` [Example 320] are under 0.1 µM and under 0.1 µM.
For `Cc1ccc(-c2nc3n(n2)CCCC3)cc1NC(=O)c1cnn2ccc(N3CC4(C3)CC(O)(C(F)F)C4)cc12` [Example 321], the IC50 in test [1] fell in the range of 0.1 to 1 µM. Also, in test [2], the EC50 fell in the range of 0.1 to 1 µM.
As for `Cc1ccc(-c2nc3n(n2)CCN(C(=O)OC(C)(C)C)C3)cc1NC(=O)c1cnn2ccc(N3CC4(C3)CC(O)(C(F)F)C4)cc12` [Example 322], the IC50 in test [1] was under 0.1 µM. Also, the EC50 in test [2] lay within 0.1 to 1 µM.
In the same order, the values of `Cc1ccc(-c2nc3n(n2)CCN(C(=O)C2CC2)C3)cc1NC(=O)c1cnn2ccc(N3CC4(C3)CC(O)(C(F)F)C4)cc12` [Example 323] are 0.1 to 1 µM and over 1 µM.
In the same order, the values of `COC(=O)N1CCn2nc(-c3ccc(C)c(NC(=O)c4cnn5ccc(N6CC7(C6)CC(O)(C(F)F)C7)cc45)c3)nc2C1` [Example 324] are 0.1 to 1 µM and 0.1 to 1 µM.
In the same order, the values of `Cc1ncc(-c2ncc(C(C)C)cn2)cc1NC(=O)c1cnn2ccc(N3CC4(C3)CC(O)(C(F)F)C4)cc12` [Example 326] are under 0.1 µM and under 0.1 µM.
On to `Cc1ncc(-c2ncc(C(F)F)cn2)cc1NC(=O)c1cnn2ccc(N3CC4(C3)CC(O)(C(F)F)C4)cc12` [Example 327], for which the IC50 in test [1] lay in the range of 0.1 to 1 µM. In test [2], this molecule had an EC50 of 0.1 to 1 µM.
For `Cc1ncc(-c2ncc(C(F)(F)F)cn2)cc1NC(=O)c1cnn2ccc(N3CC4(C3)CC(O)(C(F)F)C4)cc12` [Example 328], the half-inhibitory concentration (IC50) in test [1] lay in the range of 0.1 to 1 µM. Moreover, the EC50 in test [2] was under 0.1 µM.
`Cc1ccc(-c2cnc(OC(F)F)nc2)cc1NC(=O)c1cnn2ccc(N3CC4(COC4)C3)cc12` [Example 329]: the IC50 in test [1] is under 0.1 µM. Also, in test [2], the EC50 fell in the range of 0.1 to 1 µM.
As for `Cc1ncc(-c2ccc(OC(F)F)nc2)cc1NC(=O)c1cnn2ccc(N3CC4(COC4)C3)cc12` [Example 330], the IC50 in test [1] was 0.1 to 1 µM. For the same molecule, in test [2], the EC50 was under 0.1 µM.
As to `Cc1ncc(-c2ccc(OC(F)F)cn2)cc1NC(=O)c1cnn2ccc(N3CC4(C3)CC(O)(C(F)F)C4)cc12` [Example 331], the IC50 in test [1] lay within 0.1 to 1 µM. Also, the EC50 in test [2] was under 0.1 µM.
On the same counts, the results for `Cc1ncc(-c2ccc(OC(F)(F)F)cn2)cc1NC(=O)c1cnn2ccc(N3CC4(COC4)C3)cc12` [Example 332] are 0.1 to 1 µM and under 0.1 µM.
For `Cc1ncc(-c2ccc(OC(F)(F)F)cn2)cc1NC(=O)c1cnn2ccc(N3CC4(C3)CC(O)(C(F)F)C4)cc12` [Example 333], the IC50 in test [1] was under 0.1 µM. For the same molecule, in test [2], the EC50 was under 0.1 µM.
Regarding `Cc1ccc(-c2nccc(C3CC3)n2)cc1NC(=O)c1cnn2ccc(N3CC4(COC4)C3)cc12` [Example 334], the IC50 in test [1] is 0.1 to 1 µM. In addition, the EC50 in test [2] was under 0.1 µM.
In the same order, the values of `Cc1ccc(-c2ncc(C3CC3)cn2)cc1NC(=O)c1cnn2ccc(N3CC4(COC4)C3)cc12` [Example 335] are under 0.1 µM and under 0.1 µM.
In the case of `Cc1ccc(-c2ccc(C3CC3)cn2)cc1NC(=O)c1cnn2ccc(N3CC4(COC4)C3)cc12` [Example 336], the IC50 in test [1] is under 0.1 µM. This molecule also came in with an EC50 in test [2] of under 0.1 µM.
In the case of `Cc1ccc(-c2ncc(C(F)(F)F)cn2)cc1NC(=O)c1cnn2ccc(N3CC4(COC4)C3)cc12` [Example 337], the IC50 in test [1] lay in the range of 0.1 to 1 µM. Further, the EC50 in test [2] is under 0.1 µM.
As to `Cc1ccc(-c2ncc(OC(F)F)cn2)cc1NC(=O)c1cnn2ccc(N3CC4(COC4)C3)cc12` [Example 338], the IC50 in test [1] lay within 0.1 to 1 µM. This molecule returned an EC50 in test [2] of under 0.1 µM.
On the same counts, the results for `Cc1ccc(-c2ncc(C3CC3)cn2)cc1NC(=O)c1cnn2ccc(N3CC4(C3)CC(O)(C(F)F)C4)cc12` [Example 339] are under 0.1 µM and under 0.1 µM.
